According to ChEMBL document CHEMBL1765027, “5'-Modified pyrimidine nucleosides as inhibitors of ribonuclease A” (Bioorg Med Chem, 2011):
Calls of active or inactive are those of the source. The rule behind the calls is not given here.

Assays:
[1] = molecular target: T1, Ribonuclease pancreatic (Bos taurus) (UniProt P61823); assay: Inhibition of bovine pancreatic RNase A-mediated degradation of yeast tRNA assessed as residual tRNA band at 0.09 mM preincubated for 3 hrs measured after 30 mins of addition of tRNA using ethidium bromide staining by agarose gel based assay
T1 sequence (whole entry): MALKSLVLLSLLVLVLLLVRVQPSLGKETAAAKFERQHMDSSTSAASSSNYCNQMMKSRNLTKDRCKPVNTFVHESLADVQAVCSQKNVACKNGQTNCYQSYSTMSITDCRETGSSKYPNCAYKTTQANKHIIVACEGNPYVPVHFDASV

[2] = molecular target: T1, Ribonuclease pancreatic (Bos taurus); assay: Inhibition of bovine pancreatic RNase A ribonucleolytic activity assessed as reduction of yeast tRNA degradation at 0.27 mM preincubated for 2 hrs by precipitation assay
[3] = molecular target: T1, Ribonuclease pancreatic (Bos taurus); assay: Inhibition of bovine pancreatic RNase A-mediated degradation of yeast tRNA assessed as residual tRNA band at 0.18 mM preincubated for 3 hrs measured after 30 mins of addition of tRNA using ethidium bromide staining by agarose gel based assay
Ribonuclease pancreatic [4] = molecular target: T2, Ribonuclease pancreatic (Bos taurus, UniProt P61823); assay: Inhibition of bovine pancreatic RNase A using 2',3'-cCMP as a substrate by Dixon plot analysis
T2 sequence (P61823 whole entry): T1 sequence (whole entry)

[5] = molecular target: T1, Ribonuclease pancreatic (Bos taurus); assay: Inhibition of bovine pancreatic RNase A-mediated degradation of yeast tRNA assessed as residual tRNA band at 0.27 mM preincubated for 3 hrs measured after 30 mins of addition of tRNA using ethidium bromide staining by agarose gel based assay
Ribonuclease pancreatic [6] = molecular target: T2, Ribonuclease pancreatic; assay: Inhibition of bovine pancreatic RNase A using 2',3'-cCMP as a substrate by Lineweaver-Burk analysis
Ribonuclease pancreatic [7] = molecular target: T2, Ribonuclease pancreatic; assay: Inhibition of bovine pancreatic RNase A at pH 5.9 by spectrophotometric method

Row | SMILES | Activity [1] | inhibition [2] | Activity [3] | Ki (Ribonuclease pancreatic [4]) | Activity [5] | Ki (Ribonuclease pancreatic [6]) | Ki (Ribonuclease pancreatic [7])
1 | O=C(O)C1CCN(C[C@H]2O[C@@H](n3ccc(=O)[nH]c3=O)[C@H](O)[C@@H]2O)CC1 | Active | 37% | Active | 61 µM | Active | 75 µM | 
2 | Cc1cn([C@H]2C[C@@H](O)[C@@H](CN3CCC(C(=O)O)CC3)O2)c(=O)[nH]c1=O | Active | 18% | Active | 183 µM | Active | 229 µM | 
3 | Cc1cn([C@H]2C=C[C@@H](CN3CCC(C(=O)O)CC3)O2)c(=O)[nH]c1=O | Active | 14% | Active |  | Active | 250 µM | 
4 | Nc1ncnc2c1ncn2[C@@H]1O[C@H](CO)[C@@H](OP(=O)(O)OC[C@H]2O[C@@H](n3ccc(=O)[nH]c3=O)C[C@@H]2OP(=O)(O)OP(=O)(O)O)[C@H]1O |  |  |  |  |  |  | 0.027 µM
5 | Cc1cn([C@H]2C[C@H](O)[C@@H](CN3CCC(C(=O)O)CC3)O2)c(=O)[nH]c1=O | Active | 23% | Active | 121 µM | Active | 162 µM | 
